The nature of assay [1]: Tail suspension test (TST). The format is in vivo, mice. As to conditions: 3 mg/kg p.o. of each drug; for Immobility time (sec, mean ± SE): 60 min before suspension, 5-15 min period, N = 7-9; for % of shortening for immobility time: versus vehicle. The text has this: The tail suspension test (TST) was originally described by Steru et al. […] The antidepressant activity of a test drug can be detected as an index of shortening the immobility time. This test is widely used as to an experimental animal model for predicting the antidepressant activity of a test drug in clinical settings. An automated device for performing the TST was developed by the authors of the TST (1989).^2) We improved this device and developed our own device incorporating an electric balance, an A/D converter, a testing box (30×25×25 cm), and a personal computer. The mouse was suspended from a hook hanging from the ceiling in the testing box by adhesive tape applied 20 mm from the tip of the tail. The duration of immobility was measured by the computer for a period of 15 min following the start of suspension. […] The experiments were carried out in a sound-proof room.

Assay [2] in a line: Augmentation therapy in major depressive disorder patients non-responsive or partially responsive to serotonin reuptake inhibitors. It is filed as in vivo. As to conditions: 10 to 30 mg/day for 4 to 8 weeks, added to serotonin reuptake inhibitor therapy. On the procedure:
Only patients with such Hamilton scores receive treatment. These patients are interviewed to obtain a complete medical and psychiatric history.
Only patients with such Hamilton scores receive treatment. These patients are interviewed to obtain a complete medical and psychiatric history. Dehydroaripiprazole is first administered at a dose of 10 mg/day and increased to 30 mg/day as needed in the opinion of the monitoring psychiatrist. Dehydroaripiprazole is administered to these patients at a dose of from 10 mg/day to 30 mg/day for a period of at least four weeks, and up to eight weeks for patients who respond well to this treatment during the first four weeks.

On to `CN(C)CCCC1(c2ccc(F)cc2)OCc2cc(C#N)ccc21` (centres unmarked) [Citalopram, citalopram], for which, in assay [1], the “Immobility time (sec, mean ± SE)” value stood at 468.7 ± 24.2 s and the “% of shortening for immobility time” value is listed as 6%.
For the compound `O=C1CCc2ccc(OCCCCN3CCN(c4cccc(Cl)c4Cl)CC3)cc2N1` [Aripiprazole, 7-{4-[4-(2,3-Dichlorophenyl)-1-piperazinyl]-butoxy}-3,4-dihydrocarbostyril], in assay [1], the “Immobility time (sec, mean ± SE)” value was found to be 486.4 ± 12.3 s and the “% of shortening for immobility time” value is 3%. Moreover, the “symptoms of depression (Hamilton test, CGI, AIMS, SAS, Barnes)” value in assay [2] is reported as “improvement in alleviation of symptoms of depression”.

Source of the values: patent publication US20190151308A1 (Otsuka Pharmaceutical Co., Ltd., priority 2002, published 2019).
